Experimental data: PMC4021826, “Functional characterization of a xylose transporter in Aspergillus nidulans” (Biotechnology for Biofuels, 2014)

Molecular target: T1, XtrD (Aspergillus nidulans, UniProt Q5BGT0)
T1 construct: gene ANIA_00250; full-length xtrD in modified vector pRH195 (HXT7 promoter), expressed in S. cerevisiae EBY.VW4000 lacking hexose transporters
T1 sequence (Q5BGT0 1-547): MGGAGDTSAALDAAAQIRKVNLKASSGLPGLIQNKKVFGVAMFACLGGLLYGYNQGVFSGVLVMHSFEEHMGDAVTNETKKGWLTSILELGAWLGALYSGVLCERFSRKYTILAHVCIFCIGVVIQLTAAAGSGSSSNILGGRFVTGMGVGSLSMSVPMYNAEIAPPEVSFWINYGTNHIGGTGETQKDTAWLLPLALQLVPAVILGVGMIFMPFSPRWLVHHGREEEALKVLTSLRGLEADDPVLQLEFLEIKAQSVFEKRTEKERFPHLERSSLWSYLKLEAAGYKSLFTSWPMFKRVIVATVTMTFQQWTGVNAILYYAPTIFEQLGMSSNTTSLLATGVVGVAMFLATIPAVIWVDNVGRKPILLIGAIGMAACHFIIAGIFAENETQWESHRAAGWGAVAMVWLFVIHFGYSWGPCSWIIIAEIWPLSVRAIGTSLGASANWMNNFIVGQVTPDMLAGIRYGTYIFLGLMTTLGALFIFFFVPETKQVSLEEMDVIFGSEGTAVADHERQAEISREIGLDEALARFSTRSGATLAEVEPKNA
Assay: competition of […]glucose uptake in S. cerevisiae EBY.VW4000 expressing xtrD
Assay type: cell-based
Details: 10- and 20-fold excess unlabeled xylose over glucose, respectively; 5 s uptake, 30 °C

% inhibition of radiolabeled glucose transport at 10- and 20-fold excess: 90% to 100%
SMILES: OC1OC[C@@H](O)[C@H](O)[C@H]1O (stereo partly shown) [xylose]
